This note sets out measurements from US20230029372A1, “THERAPEUTIC COMPOSITIONS AND METHODS FOR PREVENTION AND TREATMENT OF DIASTOLIC DYSFUNCTION” (AMBETEX PTY LTD, priority 2019, published 2023).

Format in all cases: in vivo
One data set relates to obese mice. Nature of the data set: PF06648671-High Fat Diet (HFD) treatment study: echocardiography. The procedure:
(§1) PF06648671-High Fat Diet (HFD) treatment study: At 12 weeks of age, mice (n=30) were placed on a HFD with 43% of calories from fat (23.5% by weight; SF04-001 High Fat Rodent Diet Based on D12451, Specialty Feeds, Glen Forrest, Wash.). After 13 weeks of the diet period, echocardiography was performed on all mice to obtain pre-drug treatment measures of cardiac function. Mice were allocated to treatment groups so that measures of cardiac function and morphology were matched as best as possible. PF06648671 (Medkoo Biosciences) was resuspended in 100% DMSO before being diluted in a hydroxypropyl cellulose solution to give a final solution containing lmg/mL PF06648671 in 10% hydroxypropyl cellulose and 5% DMSO. A vehicle solution containing 10% hydroxypropyl cellulose and 5% DMSO was also made. Aliquots of both drug and vehicle were stored at −80° C. until required. The HFD/PF06648671 group was administered 4 mg/kg of PF06648671 per day by oral gavage, while the HFD/control group received an equivalent volume of vehicle. Echocardiography was then performed following 4 weeks of the treatment period to obtain post-drug treatment measures of cardiac function. Following 5 weeks of the drug administration, mice were humanely killed via cervical dislocation and blood was immediately obtained via cardiac puncture and stored in a heparinised tube. The heart, epididymal fat pad, mesenteric fat pad, liver, quadricep, hind limb and brain were then immediately dissected. The heart was blotted prior to being weighed and all tissues were snap frozen in liquid nitrogen and stored at −80° C. Plasma Aβ species were measured using high sensitivity ELISA kits (Wako Diagnostics) and plasma that was diluted 1:10 with assay buffer.

The test system of the next data set is plasma Aβ species. Nature of the data set: PF06648671-High Fat Diet (HFD) treatment study: plasma Aβ species by ELISA. Particulars: obese mice. The procedure: as §1, with “Following 5 weeks of the drug administration, mice were humanely killed via cervical dislocation and blood was immediately obtained via cardiac puncture and stored in a heparinised tube. The heart, epididymal fat pad, mesenteric fat pad, liver, quadricep, hind limb and brain were then immediately dissected. The heart was blotted prior to being weighed and all tissues were snap frozen in liquid nitrogen and stored at −80° C.” left out

Data set [1] concerns Male C57BL6 mice. Nature of the data set: Aβ40 administration study: plasma Aβ40 and echocardiography. Particulars: 1 μg/day i.p. The procedure: Aβ40 administration study: Lyophilised recombinant Aβ40 (Millipore) and scrambled control peptide (ScrAβ40; Millipore) were resuspended in 1% NH4OH and aliquoted at 200 ng/ml in H2O and stored at −80° C. for no longer than 4 weeks. Male C57BL6 mice were obtained from the Animal Resource Centre (Perth, Wash.) at 4 weeks of age and housed with 4 mice per cage on a 12 hr light/dark cycle at a temperature of 22° C. and a constant humidity with a normal rodent diet. At 12 weeks of age, mice were grouped according to body mass and composition, determined by EchoMRI. Mice were then administered 1 μg of recombinant Aβ40 or ScrAβ40 (n=12/group per cohort) by i.p. injection once/day for 5 wks. After 4 weeks of peptide administration, cardiac function was assessed by echocardiography as follows. Mice were anaesthetised with inhalation of 1.5% isoflurane anaesthesia and echocardiography was performed using the Phillips HD15 diagnostic ultrasound system with a 15 MHz linear-array transducer by an experienced veterinarian. The velocity of blood flow through the mitral valve was analysed using Doppler mode imaging. […] Doppler imaging was also utilised to measure the velocity of blood flow through the aortic valve. The measurements were then used to calculate the ejection time, peak aortic flow and heart rate. M-mode imaging of the left ventricle was used to measure the thickness of the inter-ventricular septum (IVS), left ventricular internal diameter (LVID) and left ventricular posterior wall (LVPW) in both diastole (d) and end-systole (s) as well as systolic measures such as ejection fraction and fractional shortening. An estimation of LV mass was calculated from the m-mode imaging by using the formula (1.05[LVIDd+LVPWd+IVSd]^3−[LVIDd]^3) by Troy et al. (1972). Mice were humanely killed by cervical dislocation 1 week later. Blood was obtained immediately following by cardiac puncture and the heart, and other tissues were immediately removed. Hearts were washed in ice cold PBS and weighed prior to being snap frozen in liquid nitrogen. Plasma Aβ40 was measured using a high sensitivity ELISA kit (Wako Diagnostics) and plasma that was diluted 1:10 with assay buffer.

For data set [2], the system named is Male C57BL6 mice. Description: Aβ42 administration study: cardiac function by echocardiography. How it is done: After 4 weeks of peptide administration, cardiac function was assessed by echocardiography as follows. Mice were anaesthetised with inhalation of 1.5% isoflurane anaesthesia and echocardiography was performed using the Phillips HD15 diagnostic ultrasound system with a 15 MHz linear-array transducer by an experienced veterinarian. The velocity of blood flow through the mitral valve was analysed using Doppler mode imaging. […] Doppler imaging was also utilised to measure the velocity of blood flow through the aortic valve. The measurements were then used to calculate the ejection time, peak aortic flow and heart rate. M-mode imaging of the left ventricle was used to measure the thickness of the inter-ventricular septum (IVS), left ventricular internal diameter (LVID) and left ventricular posterior wall (LVPW) in both diastole (d) and end-systole (s) as well as systolic measures such as ejection fraction and fractional shortening. An estimation of LV mass was calculated from the m-mode imaging by using the formula (1.05 [LVIDd+LVPWd+IVSd]^3−[LVIDd]^3) by Troy et al. (1972). Mice were humanely killed by cervical dislocation 1 week later. Blood was obtained immediately following by cardiac puncture and the heart, and other tissues were immediately removed. Hearts were washed in ice cold PBS and weighed prior to being snap frozen in liquid nitrogen.
Hearts were also collected for morphological analysis (FIG. 2).

The test system of data set [3] is Male C57BL6 mice. Description: Aβ42 administration study: plasma Aβ42, body measures, GTT with glucose tracers, cardiac TAG, gene expression.
Method: Male C57BL6 mice were obtained from the Animal Resource Centre (Perth, Wash.) at 4 weeks of age and housed with 4 mice per cage on a 12 hr light/dark cycle at a temperature of 22° C. and a constant humidity with a normal rodent diet. At 12 weeks of age, mice were grouped according to body mass and composition, determined by EchoMRI. […] An i.p. glucose tolerance test (GTT) was performed on the final treatment day following an overnight fast. Mice were administered 2 g/kg lean mass of glucose including radioactive glucose tracers, prepared as follows. 100 μl of 1 μCi/μl glucose analogue, [^3H]-2-deoxyglucose (2-DOG), and 500 μl of 200 μCi/mL U-^14C glucose were evaporated to dryness before redissolving the radioactive tracers in 1 mL of 50% glucose. This produced a 50% glucose solution containing 100 μCi/mL [^3H]-2-DOG and 100 μCi/mL U-^14C glucose. The tail tip of each mouse was cut off and the blood glucose concentration of a blood sample was measured using an AccuCheck II glucometer (Roche). The GTT was initiated via intraperitoneal injection of the radiolabelled glucose solution (2 g/kg body weight, 10 uCi/animal) into the overnight-fasted mice. Further blood samples were taken at 15, 30, 45, 60 and 90 minutes after the injection for the measurement of blood glucose. Blood samples (30 μl) were also taken from the tail tip at each time point and diluted in 100 μl of saline. These samples were then centrifuged and the supernatant collected. 50 μl of the supernatant was diluted in 500 μl of distilled water and then suspended in 4 mL of Ultima Gold XR scintillation fluid (Packard Bioscience). Blood radioactivity was determined at each time point by performing liquid scintillation counting on each solution using the Beckman scintillation counter (LS6000 SC). At the conclusion of the GTT, mice were killed via cervical dislocation. Blood was obtained immediately following by cardiac puncture and the heart, and other tissues were immediately removed. Hearts were washed in ice cold PBS and weighed prior to being snap frozen in liquid nitrogen. The heart (30 mg), epididymal fat pad (30 mg and quadriceps skeletal muscle (30 mg) were homogenised in 1.5 ml of distilled water. The homogenate was centrifuged at 3000 rpm for 10 min at 4° C. 400 μl of the supernatant was diluted into 1.6 mL of distilled water and then suspended in 14 mL of Ultima Gold XR scintillation fluid (Packard Bioscience). The radioactivity of each sample (from both [^3H]-2-DOG6P and [^3H]-2-DOG) was determined by liquid scintillation counting using the Beckman scintillation counter (LS6000 SC). The ^3H radioactivity was used to measure glucose uptake into each tissue.
To determine the incorporation of U-^14C glucose into triglyceride and the total triglyceride content in the heart, an extraction of triglyceride was carried out using a chloroform/methanol mixture. Samples of heart (30 mg) were hand-homogenised in 2 mL of chloroform/methanol (2:1) and the homogeniser rinsed in a further 2 mL of chloroform/methanol (2:1), and the washings being added to the original extract in 10 mL tubes. The tubes were tightly capped and mixed on a rotator overnight to maximise extraction of the triglycerides. 2 ml of 0.6% saline was then added, to facilitate the separation of the organic and aqueous phases, after which the tubes were mixed thoroughly and then centrifuged at 2000 rpm for 10 minutes. The lower chloroform phase (containing triglycerides) was collected and evaporated to dryness under nitrogen at 45° C. The dried extract was then re-dissolved in 250 μl of 100% ethanol, to redissolve the lipid and enable aliquots to dispensed for assay. The amount of U-^14C glucose clearance into the lipid fraction was measured by suspending 100 μl of the triglyceride solution in 5 mL of Ultima Gold XR scintillation fluid (Packard Bioscience), followed by scintillation counting using the Beckman scintillation counter (LS6000 SC).
Setting [4] is: GTT after five weeks of peptide, vs ScrAβ42.

Entries after “also recorded” stand apart in the source; their conditions may differ.

For the compound `Cc1cn(-c2ccc3n(c2=O)CCN([C@@H](C)[C@@H]2CC[C@H](c4cc(F)c(Cl)cc4C(F)(F)F)O2)C3=O)cn1` [PF06648671], in the data set on obese mice (obese mice (FIG. 7D)), the “relative change in the E:A ratio, Vehicle vs PF06648671 groups” value was “significantly different”. Moreover, the “E:A ratio Pre-treatment to Post-treatment” value in the data set with obese mice (obese mice, 4 mg/kg per day oral gavage, 4 weeks (FIG. 7C)) was “did not change; also recorded: prevented deterioration”. Further, the “E:A ratio relative to Pre-treatment values” in the data set with obese mice (obese mice, 4 mg/kg per day oral gavage, 4 weeks (FIG. 7D)) was determined as 114%. The “plasma Aβ40” value with plasma Aβ species (4 mg/kg per day oral gavage (FIG. 7A)) is “decreased”. Also, the “plasma Aβ42” value with plasma Aβ species (4 mg/kg per day oral gavage (FIG. 7B), 4 mg/kg/day) was “decreased; also recorded: reduced”.

As for “Aβ40: Lyophilised recombinant Aβ40 (Millipore)”, the “E:A ratio” value in the data set on Male C57BL6 mice [1] (5 weeks (FIG. 6B)) is “did not have any effect”. Also, the DT result with Male C57BL6 mice [1] (5 weeks (FIG. 6C)) is “did not have any effect”. In addition, in the data set on Male C57BL6 mice [1] (5 weeks (FIG. 6E)), the ejection fraction entry is given as “nor any effect”. Besides, the IVSd result with Male C57BL6 mice [1] (5 weeks (FIG. 6F)) was “no effect”. For the same compound, the LVIDd result in the data set on Male C57BL6 mice [1] (5 weeks (FIG. 6G)) is given as “no effect”. The LV mass result in the data set with Male C57BL6 mice [1] (5 weeks (FIG. 6H)) was “no effect”. Further, the “plasma Aβ40” value with Male C57BL6 mice [1] (5 weeks, vs ScrAβ40 (FIG. 6A)) is given as “significantly increased”.

For the compound “Aβ42: Lyophilised recombinant Aβ42 (Millipore)”, in the data set with Male C57BL6 mice [2] (Aβ42 vs ScrAβ42 (FIG. 2B)), the “internal dimensions of the left ventricle (LVIDd)” value is “no effect”. Further, the deceleration time result with Male C57BL6 mice [2] (Aβ42 vs ScrAβ42 (FIG. 2D)) is “increased”. In addition, in the data set on Male C57BL6 mice [2] (Aβ42 vs ScrAβ42 (FIG. 2E)), the “E normalised by isovolumetric relaxation time (IVRT)” value is “no significant difference”. In addition, in the data set with Male C57BL6 mice [2] (Aβ42 vs ScrAβ42 (FIG. 2F)), the fractional shortening result is given as “reduced”. Moreover, in the data set on Male C57BL6 mice [2] (Aβ42 vs ScrAβ42 (FIG. 2G)), the ejection fraction entry is given as “reduced”. In the data set with Male C57BL6 mice [2] (Aβ42 vs ScrAβ42, five weeks (FIG. 2A)), the gross heart weight result was “no effect”. For the same compound, the “increase in plasma Aβ42” value with Male C57BL6 mice [3] (1 μg/day i.p., five weeks, compared with ScrAβ42 (FIG. 1A)) is recorded as “approximately 3 fold”. In addition, in the data set with Male C57BL6 mice [3] (setting [4]), the “plasma insulin throughout the GTT” value is listed as “no difference” and the “whole body glucose tolerance” value is on record as “no difference”. The “glucose incorporation into TAG (14C-glucose labelling)” value in the data set on Male C57BL6 mice [3] (heart, after five weeks of peptide (FIG. 1C)) was “greater”. For the same compound, the “total TAG” value with Male C57BL6 mice [3] (heart, after five weeks of peptide (FIG. 1D)) is recorded as “increased”. In the data set with Male C57BL6 mice [3] (heart, after five weeks of peptide (FIG. 1E)), the “cardiac gene expression (inflammation, endoplasmic reticulum stress)” value is listed as “gene expression changes indicative of cardiac stress responses”.
